For series [1] the following is noted: stated as background for single daily dosage; cited from earlier work.
The subject of series [2] is Piroxicam-Induced Gastric Lesions in Rats. In words: Protective effect of disodium 5'-guanylate on piroxicam-induced gastric lesions in rats. Format: in vivo, CD strain (Sprague-Dawley), male. The note with it: for Lesions/Rat (X +/- SE): mean (SE). The method, then:
(§1) Adult male "specific pathogen free" rats weighing 140-160 grams of the CD strain (Sprague-Dawley) were obtained from Charles River Breeding Laboratories (Kingston, N.Y.). The animals were acclimated for approximately one week and tested when they reached a body weight of 200-225 grams. The rats were fasted for 16 hours and randomized into groups consisting of 10 animals which were normalized with regard to their average body weight.
(§2) Gastric ulcers were induced in the animals by orally dosing them with a single 120 mg/kg dose of piroxicam (ethanolamine salt) in 2 ml. of aqueous 0.1% methylcellulose (pH=6.8). Those animals receiving disodium 5'-guanylate separately received the second drug in an additional 2 ml. of the same medium at about the same time. Six and one-half hours later, the animals were sacrificed by cervical dislocation and autopsied. The stomachs were surgically removed, dissected along the greater curvature and rinsed with cold water. The stomachs were individually scored for both linear and punctate lesions. The total number of lesions was used for scoring purposes. The data obtained from each group of rats was analyzed after calculation of the mean number +/- the standard error of total gastric lesions. The values obtained were also compared to the controls which received only piroxicam by the two-tailed Student's T-Test for non-paired data.

In series [3] the test system is Piroxicam Induced Gastric Lesions in Rats. In words: Protective effect of N-acetyl-L-methionine on piroxicam induced gastric lesions in rats. Format: in vivo, CD strain (Sprague-Dawley), male. As to conditions: for Lesions/Rat (X +/- SE): mean (SE). The method, then:
as §1, §2
By the procedure of the preceding Example, the protective effect of the N-acetyl-L-methionine on piroxicam induced gastric lesions in rats was determined.

The subject of another series is gastric ulcers in rats. As to conditions: Tanaka et al. 1982, Kunimi et al. 1982; cited from earlier work.
Series [4] relates to gastrointestinal ulcers induced by the subcutaneous injection of indomethacin. The note with it: Urishidani et al. 1977; cited from earlier work.
For series [5], the system named is gastric mucosal damage of aspirin solutions in rats. As to conditions: Lim et al. 1979; cited from earlier work.

Results on nine compounds are retold here after patent publication US4994457A, “Antiinflammatory compositions and methods” (Pfizer Inc., priority 1987, dated 1991).

Where a name gives a salt, the structure may show the parent alone.

For `CN1C(C(=O)Nc2ccccn2)=C(O)c2ccccc2S1(=O)=O` [piroxicam, 4-hydroxy-2-methyl-N-2-pyridinyl-2H-1,2-benzothiazine-3-carboxamide 1,1-dioxide], the in vivo half-life entry in series [1] was “long”.
For `CN1C(C(=O)Nc2ccccn2)=C(O)c2ccccc2S1(=O)=O` [Ethanolamine Salt of Piroxicam, 4-hydroxy-2-methyl-N-2-pyridinyl-2H-1,2-benzothiazine-3-carboxamide 1,1-dioxide, reference compound], the “Lesions/Rat (X +/- SE)” value in series [2] (control: 120 mg/kg oral ethanolamine salt of piroxicam alone, 40 rats, 6.5 h) is on record as 8.3 (0.9) Lesions/Rat; in series [3] (control: 120 mg/kg oral ethanolamine salt of piroxicam alone, 50 rats) it was 8.0 (0.8) Lesions/Rat.
Take `CC(=O)NCCC(=O)N[C@@H](Cc1c[nH]cn1)C(=O)O` [aluminum salts of N-acetyl-L-carnosine, N-(N-acetyl-beta-alanyl)-L-histidine]: the “prevention of the exacerbation of gastric ulcers by certain antiinflammatory agents” value (“prevention” below) with gastric ulcers in rats is on record as “prevent the exacerbation of gastric ulcers”.
For the compound `Nc1nc2c(ncn2[C@@H]2O[C@H](COP(=O)(O)O)[C@@H](O)[C@H]2O)c(=O)[nH]1` [Disodium 5'-Guanylate, guanosine 5'-monophosphate], in series [2] (healthy fasted rat, oral), the “reduction of piroxicam-induced gastric lesions” value is “significantly reduces piroxicam-induced gastric lesions”. In addition, the “Lesions/Rat (X +/- SE)” value in series [2] (oral 1.0 mg/kg, 20 rats, with 120 mg/kg piroxicam ethanolamine salt) is 8.1 (0.7) Lesions/Rat; in series [2] (oral 3.3 mg/kg, 20 rats, with 120 mg/kg piroxicam ethanolamine salt) it was 5.8 (0.5) Lesions/Rat; in series [2] (oral 10.0 mg/kg, 30 rats, with 120 mg/kg piroxicam ethanolamine salt), 4.6 (0.8) Lesions/Rat; in series [2] (oral 33.0 mg/kg, 40 rats, with 120 mg/kg piroxicam ethanolamine salt), 3.9 (0.6) Lesions/Rat.
Regarding `CSCC[C@H](N)C(=O)O` [methionine], the “inhibition of gastrointestinal ulcers” value in series [4] is listed as “inhibit gastrointestinal ulcers”. Also, the “effect on gastric mucosal damage of aspirin solutions” value in series [5] was “beneficial effect”.
`CC(=O)NCCC(=O)N[C@@H](Cc1c[nH]cn1)C(=O)O` [N-acetyl-L-carnosine, N-(N-acetyl-beta-alanyl)-L-histidine]: the “prevention” value in the series with gastric ulcers in rats is reported as “not”.
Turning to `NCCC(=O)N[C@@H](Cc1cnc[nH]1)C(=O)O` [L-carnosine], the “prevention” value in the series with gastric ulcers in rats is on record as “not”.
Take `CC(=O)N[C@@H](CCC(N)=O)C(=O)O` [aluminum salts of N-acetyl-L-glutamine, N-acetyl-L-glutamine]: in the series on gastric ulcers in rats, the “prevention” value was “prevent the exacerbation of gastric ulcers”.
Consider `CSCC[C@H](NC(C)=O)C(=O)O` [N-Acetyl-L-methionine, N-acetyl-L-methionine], for which the ED50 in series [3] (Rattus norvegicus, 6.5 h, oral, 120 mg/kg piroxicam ethanolamine salt, read-out: ED50 (dose of the N-acetylmethionine required to inhibit 50% of control gastric lesions)) fell in the range of 100 to 333 mg/kg. Moreover, the “Lesions/Rat (X +/- SE)” value is recorded as 6.9 (0.8) Lesions/Rat in series [3] (oral 33 mg/kg, 50 rats, with 120 mg/kg piroxicam ethanolamine salt); 3.9 (0.8) Lesions/Rat in series [3] (oral 100 mg/kg, 40 rats, with 120 mg/kg piroxicam ethanolamine salt); 3.5 (0.9) Lesions/Rat in series [3] (oral 333 mg/kg, 20 rats, with 120 mg/kg piroxicam ethanolamine salt).
